Results as given in ChEMBL document CHEMBL1765029, “Synthesis and biological evaluation of estradiol linked pyrrolo[2,1-c][1,4]benzodiazepine (PBD) conjugates as potential anticancer agents” (2011).

System: MCF7
Assay: Cytotoxicity against human MCF7 cells by sulforhodamine B method
Type: functional
Work on `COc1cc2c(cc1OCc1cn(CCCOc3ccc4c(c3)CC[C@@H]3[C@@H]4CC[C@]4(C)[C@@H](O)CC[C@@H]34)nn1)N=C[C@@H]1CCCN1C2=O` yielded a GI50 of 120 nM. In the case of `COc1cc2c(cc1OCCCCCOc1ccc3c(c1)CC[C@@H]1[C@@H]3CC[C@]3(C)[C@@H](O)CC[C@@H]13)N=C[C@@H]1CCCN1C2=O`, the GI50 is reported as 170 nM. `COc1cc2c(cc1OCCCCCOc1ccc3c(c1)CC[C@@H]1[C@@H]3CC[C@]3(C)[C@@H](O)CC[C@@H]13)N=C[C@@H]1C[C@@H](F)CN1C2=O` gave a GI50 of 150 nM. For `COc1cc2c(cc1OCCCOc1ccc3c(c1)CC[C@@H]1[C@@H]3CC[C@]3(C)[C@@H](O)CC[C@@H]13)N=C[C@@H]1CCCN1C2=O`, the GI50 was 170 nM.

System: A549
Assay: Cytotoxicity against human A549 cells by sulforhodamine B method
Type: functional
Compound `COc1cc2c(cc1OCc1cn(CCCOc3ccc4c(c3)CC[C@@H]3[C@@H]4CC[C@]4(C)[C@@H](O)CC[C@@H]34)nn1)N=C[C@@H]1CCCN1C2=O` has a GI50 of 180 nM. Compound `COc1cc2c(cc1OCCCCCOc1ccc3c(c1)CC[C@@H]1[C@@H]3CC[C@]3(C)[C@@H](O)CC[C@@H]13)N=C[C@@H]1CCCN1C2=O` has a GI50 of 2200 nM. In the case of `COc1cc2c(cc1OCCCCCOc1ccc3c(c1)CC[C@@H]1[C@@H]3CC[C@]3(C)[C@@H](O)CC[C@@H]13)N=C[C@@H]1C[C@@H](F)CN1C2=O`, the GI50 is reported as 180 nM. With `COc1cc2c(cc1OCCCOc1ccc3c(c1)CC[C@@H]1[C@@H]3CC[C@]3(C)[C@@H](O)CC[C@@H]13)N=C[C@@H]1CCCN1C2=O` the GI50 was 2100 nM.

System: ZR-75-1
Assay: Cytotoxicity against human ZR-75-1 cells by sulforhodamine B method
Type: functional
With `COc1cc2c(cc1OCc1cn(CCCOc3ccc4c(c3)CC[C@@H]3[C@@H]4CC[C@]4(C)[C@@H](O)CC[C@@H]34)nn1)N=C[C@@H]1CCCN1C2=O` the GI50 was 190 nM. Work on `COc1cc2c(cc1OCCCCCOc1ccc3c(c1)CC[C@@H]1[C@@H]3CC[C@]3(C)[C@@H](O)CC[C@@H]13)N=C[C@@H]1CCCN1C2=O` yielded a GI50 of 1190 nM. In the case of `COc1cc2c(cc1OCCCCCOc1ccc3c(c1)CC[C@@H]1[C@@H]3CC[C@]3(C)[C@@H](O)CC[C@@H]13)N=C[C@@H]1C[C@@H](F)CN1C2=O`, the GI50 is reported as 170 nM. For `COc1cc2c(cc1OCCCOc1ccc3c(c1)CC[C@@H]1[C@@H]3CC[C@]3(C)[C@@H](O)CC[C@@H]13)N=C[C@@H]1CCCN1C2=O`, the GI50 was 1190 nM.

System: KB
Assay: Cytotoxicity against human KB cells by sulforhodamine B method
Type: functional
`COc1cc2c(cc1OCc1cn(CCCOc3ccc4c(c3)CC[C@@H]3[C@@H]4CC[C@]4(C)[C@@H](O)CC[C@@H]34)nn1)N=C[C@@H]1CCCN1C2=O` showed a GI50 of 310 nM. With `COc1cc2c(cc1OCCCCCOc1ccc3c(c1)CC[C@@H]1[C@@H]3CC[C@]3(C)[C@@H](O)CC[C@@H]13)N=C[C@@H]1CCCN1C2=O` the GI50 was 2130 nM. Work on `COc1cc2c(cc1OCCCCCOc1ccc3c(c1)CC[C@@H]1[C@@H]3CC[C@]3(C)[C@@H](O)CC[C@@H]13)N=C[C@@H]1C[C@@H](F)CN1C2=O` yielded a GI50 of 2170 nM. With `COc1cc2c(cc1OCCCOc1ccc3c(c1)CC[C@@H]1[C@@H]3CC[C@]3(C)[C@@H](O)CC[C@@H]13)N=C[C@@H]1CCCN1C2=O` the GI50 was 2110 nM.

System: HOP-62
Assay: Cytotoxicity against human HOP62 cells by sulforhodamine B method
Type: functional
In the case of `COc1cc2c(cc1OCc1cn(CCCOc3ccc4c(c3)CC[C@@H]3[C@@H]4CC[C@]4(C)[C@@H](O)CC[C@@H]34)nn1)N=C[C@@H]1CCCN1C2=O`, the GI50 is reported as 1180 nM. For `COc1cc2c(cc1OCCCCCOc1ccc3c(c1)CC[C@@H]1[C@@H]3CC[C@]3(C)[C@@H](O)CC[C@@H]13)N=C[C@@H]1CCCN1C2=O`, the GI50 was 2240 nM. Work on `COc1cc2c(cc1OCCCCCOc1ccc3c(c1)CC[C@@H]1[C@@H]3CC[C@]3(C)[C@@H](O)CC[C@@H]13)N=C[C@@H]1C[C@@H](F)CN1C2=O` yielded a GI50 of 190 nM. In the case of `COc1cc2c(cc1OCCCOc1ccc3c(c1)CC[C@@H]1[C@@H]3CC[C@]3(C)[C@@H](O)CC[C@@H]13)N=C[C@@H]1CCCN1C2=O`, the GI50 is reported as 2230 nM.

System: not listed separately
Assay: Cytotoxicity against human DWD cells by sulforhodamine B method
Type: functional
Work on `COc1cc2c(cc1OCc1cn(CCCOc3ccc4c(c3)CC[C@@H]3[C@@H]4CC[C@]4(C)[C@@H](O)CC[C@@H]34)nn1)N=C[C@@H]1CCCN1C2=O` yielded a GI50 of 160 nM. `COc1cc2c(cc1OCCCCCOc1ccc3c(c1)CC[C@@H]1[C@@H]3CC[C@]3(C)[C@@H](O)CC[C@@H]13)N=C[C@@H]1CCCN1C2=O` gave a GI50 of 180 nM. `COc1cc2c(cc1OCCCCCOc1ccc3c(c1)CC[C@@H]1[C@@H]3CC[C@]3(C)[C@@H](O)CC[C@@H]13)N=C[C@@H]1C[C@@H](F)CN1C2=O` gave a GI50 of 1900 nM. `COc1cc2c(cc1OCCCOc1ccc3c(c1)CC[C@@H]1[C@@H]3CC[C@]3(C)[C@@H](O)CC[C@@H]13)N=C[C@@H]1CCCN1C2=O` gave a GI50 of 170 nM.

System: not listed separately
Assay: Cytotoxicity against human Gurav cells by sulforhodamine B method
Type: functional
Work on `COc1cc2c(cc1OCc1cn(CCCOc3ccc4c(c3)CC[C@@H]3[C@@H]4CC[C@]4(C)[C@@H](O)CC[C@@H]34)nn1)N=C[C@@H]1CCCN1C2=O` yielded a GI50 of 170 nM. Work on `COc1cc2c(cc1OCCCCCOc1ccc3c(c1)CC[C@@H]1[C@@H]3CC[C@]3(C)[C@@H](O)CC[C@@H]13)N=C[C@@H]1CCCN1C2=O` yielded a GI50 of 2040 nM. Work on `COc1cc2c(cc1OCCCCCOc1ccc3c(c1)CC[C@@H]1[C@@H]3CC[C@]3(C)[C@@H](O)CC[C@@H]13)N=C[C@@H]1C[C@@H](F)CN1C2=O` yielded a GI50 of 180 nM. With `COc1cc2c(cc1OCCCOc1ccc3c(c1)CC[C@@H]1[C@@H]3CC[C@]3(C)[C@@H](O)CC[C@@H]13)N=C[C@@H]1CCCN1C2=O` the GI50 was 2050 nM.

System: PC-3
Assay: Cytotoxicity against human PC3 cells by sulforhodamine B method
Type: functional
`COc1cc2c(cc1OCc1cn(CCCOc3ccc4c(c3)CC[C@@H]3[C@@H]4CC[C@]4(C)[C@@H](O)CC[C@@H]34)nn1)N=C[C@@H]1CCCN1C2=O` gave a GI50 of 190 nM. For `COc1cc2c(cc1OCCCCCOc1ccc3c(c1)CC[C@@H]1[C@@H]3CC[C@]3(C)[C@@H](O)CC[C@@H]13)N=C[C@@H]1CCCN1C2=O`, the GI50 was 2190 nM. Work on `COc1cc2c(cc1OCCCCCOc1ccc3c(c1)CC[C@@H]1[C@@H]3CC[C@]3(C)[C@@H](O)CC[C@@H]13)N=C[C@@H]1C[C@@H](F)CN1C2=O` yielded a GI50 of 190 nM. Work on `COc1cc2c(cc1OCCCOc1ccc3c(c1)CC[C@@H]1[C@@H]3CC[C@]3(C)[C@@H](O)CC[C@@H]13)N=C[C@@H]1CCCN1C2=O` yielded a GI50 of 2080 nM.

System: COLO 205
Assay: Cytotoxicity against human COLO205 cells by sulforhodamine B method
Type: functional
`COc1cc2c(cc1OCc1cn(CCCOc3ccc4c(c3)CC[C@@H]3[C@@H]4CC[C@]4(C)[C@@H](O)CC[C@@H]34)nn1)N=C[C@@H]1CCCN1C2=O` gave a GI50 of 170 nM. For `COc1cc2c(cc1OCCCCCOc1ccc3c(c1)CC[C@@H]1[C@@H]3CC[C@]3(C)[C@@H](O)CC[C@@H]13)N=C[C@@H]1CCCN1C2=O`, the GI50 was 190 nM. With `COc1cc2c(cc1OCCCCCOc1ccc3c(c1)CC[C@@H]1[C@@H]3CC[C@]3(C)[C@@H](O)CC[C@@H]13)N=C[C@@H]1C[C@@H](F)CN1C2=O` the GI50 was 170 nM. With `COc1cc2c(cc1OCCCOc1ccc3c(c1)CC[C@@H]1[C@@H]3CC[C@]3(C)[C@@H](O)CC[C@@H]13)N=C[C@@H]1CCCN1C2=O` the GI50 was 160 nM.

System: A2780
Assay: Cytotoxicity against human A2780 cells by sulforhodamine B method
Type: functional
Work on `COc1cc2c(cc1OCc1cn(CCCOc3ccc4c(c3)CC[C@@H]3[C@@H]4CC[C@]4(C)[C@@H](O)CC[C@@H]34)nn1)N=C[C@@H]1CCCN1C2=O` yielded a GI50 of 170 nM. `COc1cc2c(cc1OCCCCCOc1ccc3c(c1)CC[C@@H]1[C@@H]3CC[C@]3(C)[C@@H](O)CC[C@@H]13)N=C[C@@H]1CCCN1C2=O` showed a GI50 of 1190 nM. In the case of `COc1cc2c(cc1OCCCCCOc1ccc3c(c1)CC[C@@H]1[C@@H]3CC[C@]3(C)[C@@H](O)CC[C@@H]13)N=C[C@@H]1C[C@@H](F)CN1C2=O`, the GI50 is reported as 190 nM. For `COc1cc2c(cc1OCCCOc1ccc3c(c1)CC[C@@H]1[C@@H]3CC[C@]3(C)[C@@H](O)CC[C@@H]13)N=C[C@@H]1CCCN1C2=O`, the GI50 was 1190 nM.

System: SiHa
Assay: Cytotoxicity against human SiHa cells by sulforhodamine B method
Type: functional
`COc1cc2c(cc1OCc1cn(CCCOc3ccc4c(c3)CC[C@@H]3[C@@H]4CC[C@]4(C)[C@@H](O)CC[C@@H]34)nn1)N=C[C@@H]1CCCN1C2=O` gave a GI50 of 1140 nM. In the case of `COc1cc2c(cc1OCCCCCOc1ccc3c(c1)CC[C@@H]1[C@@H]3CC[C@]3(C)[C@@H](O)CC[C@@H]13)N=C[C@@H]1CCCN1C2=O`, the GI50 is reported as 2180 nM. With `COc1cc2c(cc1OCCCCCOc1ccc3c(c1)CC[C@@H]1[C@@H]3CC[C@]3(C)[C@@H](O)CC[C@@H]13)N=C[C@@H]1C[C@@H](F)CN1C2=O` the GI50 was 2310 nM. With `COc1cc2c(cc1OCCCOc1ccc3c(c1)CC[C@@H]1[C@@H]3CC[C@]3(C)[C@@H](O)CC[C@@H]13)N=C[C@@H]1CCCN1C2=O` the GI50 was 2120 nM.
